Measurements from patent US8247002B2, “Antioxidant material, anti-deterioration agent and food or beverage” (Pokka Corporation, priority 2004, dated 2012).

Legend:
Assay type in all cases: biochemical
[1] = Inhibitory effect on oxidation of biomembrane using liposome (SUV, AAPH, TBA); conditions: 500 ppm sample in phosphate buffer pH 7.4, AAPH, 535 nm
Description: A single compartment liposome (SUV: Small Unilamellar Vesicle) was used as a biomembrane model to evaluate antioxidative power. For preparing SUV, at first, 100 mg of yolk lecithin was supplemented with 1 ml of chloroform and completely dissolved, followed by the complete removal of the chloroform in a short-neck flask. The obtained lipid film was swollen by the addition of 10 ml of 10 mM phosphate buffer (pH 7.4) containing 500 ppm of the lemon glycoside of Comparative Example 1, the eriocitrin of Comparative Example 2, the enzyme-treated aglycon of Test Example 1, or eriodictyol (manufactured by Funakoshi). The resulting mixture was well shaken and completely dispersed with an ultrasonic washing machine. The lipid film swollen by the addition of 10 ml of only the phosphate buffer was tested as a control in the same way. Next, the obtained multilayer liposome solution was bubbled with nitrogen gas for 5 minutes and then sonicated at 180 W for 20 minutes in a strong ultrasonic generator to prepare a small unilamellar vesicle (SUV).
The peroxidation of the SUV thus prepared was forcedly promoted by the addition of AAPH ([…]), a radical initiator, to the SUV. As a result, a peroxide as a primary product is generated in the liposome. Subsequently, as a secondary product such as malondialdehyde is generated during the course of autoxidation. A thiobarbituric acid (TBA) reagent is added thereto to generate a red substance (TBA-positive substance), a reaction product of aldehydes. The degree of coloration thereof was measured with a spectrophotometer at λ=535 nm and used to determine the rate of oxidation of the liposome membrane (%).

[2] = Measurement of DPPH radical-scavenging activity; conditions: 500 ppm solution (with vitamin C: each 500 ppm), 100 μl aliquot, 20 minutes room temperature in the dark
Description: Each sample shown in Table 1 described below was examined for DPPH (1,1-diphenyl-2-picrylhydrazyl) radical-scavenging activity. Namely, the lemon glycoside of Comparative Example 1, the eriocitrin of Comparative Example 2, the enzyme-treated aglycon of Test Example 1, or eriodictyol, neoeriocitrin, vitamin C, or α-tocopherol purchased from Funakoshi was dissolved at its concentration of 500 ppm in a solvent to produce an aqueous solution. Then, 100 μl aliquot of the aqueous solution was supplemented with 1 ml of 0.1 M Tris buffer (pH 7.4). The solvent used for α-tocopherol was methanol. Alternatively, each sample described above and vitamin C were dissolved at each concentration of 500 ppm in a solvent to produce an aqueous solution whose 100 μl aliquot was then supplemented with 1 ml of 0.1 M Tris buffer. Subsequently, 2 ml of a DPPH solution (solution obtained by dissolving DPPH at its concentration of 500 μM in ethanol) was added to the solutions and well mixed. The resulting solutions were left at room temperature for 20 minutes in the dark to undergo reaction. The amount of DPPH in each reaction solution (10 μl) was quantified by measurement using HPLC Analysis System 2 described below under HPLC Condition 3. In a method of evaluating radical-scavenging activity, the amount of DPPH remaining in the sample (glycoside and aglycon)-free test section (control) was regarded in advance as 100%. Additionally, the amount of DPPH remaining in the reaction solution supplemented with each sample was measured and indicated by percentage (%) with respect to the amount of DPPH in the control section. Because the radical-scavenging activity of the section supplemented with eriodictyol and vitamin C was almost 100%, the test was conducted again with the amount of the sample reduced to half. Namely, eriodictyol and vitamin C were dissolved at each concentration of 500 ppm in a solvent to produce an aqueous solution whose 50 μl aliquot was then supplemented with 1 ml of 0.1 M Tris buffer. The radical-scavenging activity of the resulting solution was measured as described above. The obtained numeric value was doubled to thereby correct the data. The result is shown in Table 1. <HPLC Analysis System 2> Pump: Shimadzu LC-10AD, System Controller: Shimadzu SCL-10A, Autoinjector: Shimadzu SIL-10A, Detector: Shimadzu SPD-10A (UV spectrophotometric detector), Column Oven: Shimadzu CTO-10A <HPLC Condition 3> Column: TSK-GEL octyl-80Ts (4.6 i.d.×150 mm), Eluent: methanol/water=30/70 (v/v), Flow Rate: 1 ml/min, Detection Wavelength: 517 nm

[3] = Inhibitory effects on generation of peroxide lipid, methyl linoleate as substrate; conditions: 100 μl of 500 ppm solution, 89 mg methyl linoleate, 40° C. 18 hours in the dark
Description: Each sample shown in Table 1 described above was examined for inhibitory effects on the generation of peroxide lipid, with methyl linoleate as a substrate. Namely, 100 μl of each aqueous solution used in the paragraph (Measurement of radical-scavenging activity) and 89 mg (100 μl) of methyl linoleate were added to a small test tube of 14 mm in inner diameter and well mixed. At the same time, 100 μl of only the solvent for the aqueous solution was added instead of the aqueous solution to prepare a control. The solvents in these mixture solutions were completely removed in a vacuum desiccator using a vacuum pump. The resulting solutions were left in the dark at 40° C. for 18 hours. Next, 5 ml of 0.08% BHT (2,6-di-t-butyl-4-methylphenol)/hexane solution was added thereto. The amount of peroxide generated from methyl linoleate was measured using HPLC Analysis System 2 shown below under HPLC Condition 4. In a method of measuring and evaluating antioxidative activity, the total of HPLC peak area of peroxide lipids (13-hydroperoxide and 9-hydroperoxide) generated from methyl linoleate in the control test section was determined first. This determined value was regarded as 100%. The total HPLC peak area of the peroxide lipids in the test section supplemented with each sample was determined. This determined value was indicated by percentage (%) with respect to the total of HPLC peak area of the control to thereby determine a rate of inhibition against the oxidation of methyl linoleate.
Pump: Shimadzu LC-10AD, System Controller: Shimadzu SCL-10A, Autoinjector: Shimadzu SIL-10A, Detector: Shimadzu SPD-10A (UV spectrophotometric detector), Column Oven: Shimadzu CTO-10A
Column: Develosil ST 60-5 (4.6 i.d.×250 mm), Eluent: n-hexane/1,4-dioxane/isopropylalcohol=98/1/1 (v/v/v), Flow Rate: 1 ml/min, Detection Wavelength: 235 nm

[4] = Measurement of rate of elimination of active oxygen (xanthine oxidase / xanthine / nitro blue tetrazolium); conditions: as printed for α-tocopherol in the active oxygen test
Description: Xanthine oxidase (0.5 ml (5.6 units)) was mixed with 0.3 ml of 1 mM xanthine (manufactured by Wako Pure Chemical Industries), 0.3 ml of 0.25 mM nitro blue tetrazolium (manufactured by Wako Pure Chemical Industries), and 2.3 ml of 0.05 M sodium carbonate buffer (pH 10.2). The xanthine oxidase used was a reagent (manufactured by Wako Pure Chemical Industries) diluted at 100 fold with 0.05 M sodium carbonate buffer. This mixture was supplemented with 0.1 ml (concentration: 1000 ppm) of the lemon glycoside of Comparative Example 1 or the enzyme-treated aglycon of Test Example 1 and incubated. Because blue formazan was produced with a lapse of incubation time, absorbance at λ=560 nm was measured using a spectrophotometer (HITACHI spectrophotometer U2000) after 3 minutes of incubation. A test section without addition of the sample (glycoside and aglycon) was used as control. As a blank test, a sodium carbonate buffer was added instead of the xanthine oxidase to perform the same procedures. A value obtained by subtracting the absorbance of the blank test from the absorbance of the solution supplemented with each sample was divided by the absorbance of the control to thereby determine a rate of elimination of active oxygen (%).

Structure (SMILES) | rate of oxidation of the liposome membrane [1] | DPPH radical-scavenging activity [2] | Rate of inhibition against oxidation of methyl linoleate [3] | rate of oxidation [4]
C[C@@H]1O[C@@H](OC[C@H]2O[C@@H](Oc3cc(O)c4c(c3)O[C@H](c3ccc(O)c(O)c3)CC4=O)[C@H](O)[C@@H](O)[C@@H]2O)[C@H](O)[C@H](O)[C@H]1O [Eriocitrin, eriocitrin] | 9.52% | 28.64% | 8.00% | –
O=C1C[C@@H](c2ccc(O)c(O)c2)Oc2cc(O)cc(O)c21 [Eriodictyol, eriodictyol] | 6.80% | 75.70% | 20.99% | –
C[C@@H]1O[C@@H](O[C@H]2[C@H](Oc3cc(O)c4c(c3)O[C@H](c3ccc(O)c(O)c3)CC4=O)O[C@H](CO)[C@@H](O)[C@@H]2O)[C@H](O)[C@H](O)[C@H]1O [Neoeriocitrin, neoeriocitrin] | – | 30.70% | 9.24% | –
O=C1O[C@H]([C@@H](O)CO)C(O)=C1O [Vitamin C, ascorbic acid] | – | 14.00% | 8.32% | –
Cc1c(C)c2c(c(C)c1O)CC[C@@](C)(CCC[C@H](C)CCC[C@H](C)CCCC(C)C)O2 [α-tocopherol] | 76.87% | 44.82% | 16.97% | 238.2%
